Laboratory results reported in patent US8889676B2, “3-ureidoisoquinolin-8-yl derivatives” (Actelion Pharmaceuticals Ltd., priority 2011, dated 2014).
Converted amounts (≈) assume the structure as drawn.

The compounds below were run on S. pneumoniae ATCC 49619 (assay: Minimal inhibitory concentration (MIC) by broth microdilution (CLSI M7-A7)). Settings: Streptococcus pneumoniae, ATCC49619; cation-adjusted Mueller Hinton Broth supplemented with 3% (v/v) lysed horse blood; microdilution method.
Format: cell-based, Streptococcus pneumoniae
Procedure: Minimal inhibitory concentrations (MICs; mg/l) were determined in cation-adjusted MuellerHinton Broth (supplemented with 3% (v/v) lysed horse blood for testing Streptococcus pneumoniae) by a microdilution method following the description given in “Methods for Dilution Antimicrobial Susceptibility Tests for Bacteria that Grow Aerobically”, Approved standard, 7th ed., a Clinical and Laboratory Standards Institute (CLSI) Document M7-A7, Wayne, Pa., USA, 2006.

| SMILES | MIC |
| --- | --- |
| CCNC(=O)Nc1cc2c(-c3ccncc3)ccc(CNC(=O)OCCNC(=O)OC(C)(C)C)c2cn1 [Example 81, [3-(3-ethyl-ureido)-5-pyridin-4-yl-isoquinolin-8-ylmethyl]-carbamic acid 2-tert-butoxycarbonylamino-ethyl ester] | 0.5 µg/mL (≈ 0.983 µM) |
| CCNC(=O)Nc1cc2c(-c3ccncc3)ccc(CNC(=O)OCCN(C)C(=O)OC(C)(C)C)c2cn1 [Example 82, tert-butyl (2-((((3-(3-ethylureido)-5-(pyridin-4-yl)isoquinolin-8-yl)methyl)carbamoyl)oxy)ethyl)(methyl)carbamate] | 2 µg/mL (≈ 3.83 µM) |
| CCNC(=O)Nc1cc2c(-c3ccncc3)ccc(CNC(=O)OCCN3CCN(C(=O)OC(C)(C)C)CC3)c2cn1 [Example 83, tert-butyl 4-(2-((((3-(3-ethylureido)-5-(pyridin-4-yl)isoquinolin-8-yl)methyl)carbamoyl)oxy)ethyl)piperazine-1-carboxylate] | 1 µg/mL (≈ 1.73 µM) |
| CCNC(=O)Nc1cc2c(-c3ccncc3)ccc(CNC(=O)OC[C@@H]3CCC(=O)N3)c2cn1.Cl [Example 87, (S)-[3-(3-ethyl-ureido)-5-pyridin-4-yl-isoquinolin-8-ylmethyl]-carbamic acid 5-oxo-pyrrolidin-2-ylmethyl ester hydrochloride] | 0.25 µg/mL |
| CCNC(=O)Nc1cc2c(-c3ccncc3)ccc(CNC(=O)OCc3cncn3C)c2cn1.Cl [Example 88, [3-(3-ethyl-ureido)-5-pyridin-4-yl-isoquinolin-8-ylmethyl]-carbamic acid 3-methyl-3H-imidazol-4-ylmethyl ester hydrochloride] | 2 µg/mL |
| CCNC(=O)Nc1cc2c(-c3ccncc3)ccc(CNC(=O)OCCN3CCOCC3)c2cn1.Cl [Example 91, [3-(3-ethyl-ureido)-5-pyridin-4-yl-isoquinolin-8-ylmethyl]-carbamic acid 2-morpholin-4-yl-ethyl ester hydrochloride] | 1 µg/mL |
| CCNC(=O)Nc1cc2c(-c3ccncc3)ccc(CNC(=O)OCCCN3CCCCC3)c2cn1.Cl [Example 92, [3-(3-ethyl-ureido)-5-pyridin-4-yl-isoquinolin-8-ylmethyl]-carbamic acid 3-piperidin-1-yl-propyl ester hydrochloride] | 4 µg/mL |
| CCNC(=O)Nc1cc2c(-c3ccncc3)ccc(CNC(=O)OCCN3CCNC3=O)c2cn1.Cl [Example 93, [3-(3-ethyl-ureido)-5-pyridin-4-yl-isoquinolin-8-ylmethyl]-carbamic acid 2-(2-oxo-imidazolidin-1-yl)-ethyl ester hydrochloride] | 8 µg/mL |
| CCNC(=O)Nc1cc2c(-c3ccncc3)ccc(CNC(=O)CCCOC)c2cn1 [Example 95, N-[3-(3-ethyl-ureido)-5-pyridin-4-yl-isoquinolin-8-ylmethyl]-4-methoxy-butyramide] | 0.5 µg/mL (≈ 1.19 µM) |
| CCNC(=O)Nc1cc2c(-c3ccncc3)ccc(CNC(=O)OCCN3C(=O)CCC3=O)c2cn1.Cl [Example 97, [3-(3-ethyl-ureido)-5-pyridin-4-yl-isoquinolin-8-ylmethyl]-carbamic acid 2-(2,5-dioxo-pyrrolidin-1-yl)-ethyl ester hydrochloride] | 2 µg/mL |
| CCNC(=O)Nc1cc2c(-c3ccncc3)ccc(CNC(=O)OCCN3CCCCC3)c2cn1.Cl [Example 98, [3-(3-ethyl-ureido)-5-pyridin-4-yl-isoquinolin-8-ylmethyl]-carbamic acid 2-piperidin-1-yl-ethyl ester hydrochloride] | 4 µg/mL |
| CCNC(=O)Nc1cc2c(-c3ccncc3)ccc(CNC(=O)OCC[C@@H](O)CO)c2cn1.Cl [Example 102, (R)-[3-(3-ethyl-ureido)-5-pyridin-4-yl-isoquinolin-8-ylmethyl]-carbamic acid 3,4-dihydroxy-butyl ester hydrochloride] | 1 µg/mL |
| CCNC(=O)Nc1cc2c(-c3ccncc3)ccc(CNC(=O)OCCC(=O)OC)c2cn1.Cl [Example 105, methyl 3-((((3-(3-ethylureido)-5-(pyridin-4-yl)isoquinolin-8-yl)methyl)carbamoyl)oxy)propanoate hydrochloride] | 4 µg/mL |

The remaining compounds from weak to strong by MIC, led by results:

| MIC | SMILES |
| --- | --- |
| 8 µg/mL (≈ 17.3 µM) | CCNC(=O)Nc1cc2c(-c3ccncc3)ccc(CNC(=O)OCCN3CCCC3)c2cn1 [Example 80, [3-(3-ethyl-ureido)-5-pyridin-4-yl-isoquinolin-8-ylmethyl]-carbamic acid 2-pyrrolidin-1-yl-ethyl ester] |
| 8 µg/mL | CCNC(=O)Nc1cc2c(-c3ccncc3)ccc(CNC(=O)OCCCN(C)C)c2cn1.Cl [Example 89, [3-(3-ethyl-ureido)-5-pyridin-4-yl-isoquinolin-8-ylmethyl]-carbamic acid 3-dimethylamino-propyl ester hydrochloride] |
| 8 µg/mL | CCNC(=O)Nc1cc2c(-c3ccncc3)ccc(CNC(=O)OCC[C@H]3CCCNC3)c2cn1.Cl [Example 100, [3-(3-ethyl-ureido)-5-pyridin-4-yl-isoquinolin-8-ylmethyl]-carbamic acid (R)-2-piperidin-3-yl-ethyl ester hydrochloride] |
| 8 µg/mL (≈ 18.3 µM) | CCNC(=O)Nc1cc2c(-c3ccncc3)ccc(CNC(=O)OCCC(=O)O)c2cn1 [Example 104, 3-((((3-(3-ethylureido)-5-(pyridin-4-yl)isoquinolin-8-yl)methyl)carbamoyl)oxy)propanoic acid] |
| 2 µg/mL (≈ 4.91 µM) | CCNC(=O)Nc1cc2c(-c3ccncc3)ccc(CNC(=O)CCCO)c2cn1 [Example 90, N-[3-(3-ethyl-ureido)-5-pyridin-4-yl-isoquinolin-8-ylmethyl]-4-hydroxy-butyramide] |
| 2 µg/mL | CCNC(=O)Nc1cc2c(-c3ccncc3)ccc(CNC(=O)OCC(N)=O)c2cn1.Cl [Example 96, [3-(3-ethyl-ureido)-5-pyridin-4-yl-isoquinolin-8-ylmethyl]-carbamic acid carbamoylmethyl ester hydrochloride] |
| 2 µg/mL | CCNC(=O)Nc1cc2c(-c3ccncc3)ccc(CNC(=O)OC[C@H]3CC[C@H](CN)CC3)c2cn1.Cl [Example 101, trans-[3-(3-ethyl-ureido)-5-pyridin-4-yl-isoquinolin-8-ylmethyl]-carbamic acid 4-(aminomethyl)-(cyclohexylmethyl) ester hydrochloride] |
| 1 µg/mL | CCNC(=O)Nc1cc2c(-c3ccncc3)ccc(CNC(=O)OCCCN3CCCC3=O)c2cn1.Cl [Example 85, [3-(3-ethyl-ureido)-5-pyridin-4-yl-isoquinolin-8-ylmethyl]-carbamic acid 3-(2-oxo-pyrrolidin-1-yl)-propyl ester hydrochloride] |
| 0.5 µg/mL | CCNC(=O)Nc1cc2c(-c3ccncc3)ccc(CNC(=O)OCC3CC3)c2cn1.Cl [Example 84, [3-(3-ethyl-ureido)-5-pyridin-4-yl-isoquinolin-8-ylmethyl]-carbamic acid cyclopropylmethyl ester hydrochloride] |
| 0.5 µg/mL | CCNC(=O)Nc1cc2c(-c3ccncc3)ccc(CNC(=O)OCCCOC)c2cn1.Cl [Example 94, [3-(3-ethyl-ureido)-5-pyridin-4-yl-isoquinolin-8-ylmethyl]-carbamic acid 3-methoxy-propyl ester hydrochloride] |
| 0.5 µg/mL | CCNC(=O)Nc1cc2c(-c3ccncc3)ccc(CNC(=O)OCC(C)C)c2cn1.Cl [Example 99, [3-(3-ethyl-ureido)-5-pyridin-4-yl-isoquinolin-8-ylmethyl]-carbamic acid isobutyl ester hydrochloride] |
